Assay results: patent US20210355106A1, “NEW AMINO-PYRIMIDONYL-PIPERIDINYL DERIVATIVES, A PROCESS FOR THEIR PREPARATION AND PHARMACEUTICAL COMPOSITIONS CONTAINING THEM” (LES LABORATOIRES SERVIER, priority 2018, published 2021)

Columns and labels:
[1] = test system: Z138 mantle cell lymphoma tumour cell lines; experiment: In vitro cytotoxicity, MTT assay; format: cell-based; details: Z138 cells, exposed to the test compounds for 96 hours
Outline: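 Z138 cells exposed to compounds for 96 hours, then MTT added for 4 hours. Formazan absorbance at 540 nm serves as the measure of viable cell number.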

USP7 = target: T1, USP7 (Homo sapiens, UniProt Q93009, C315A); experiment: Inhibition of USP7 by Fluorescence Intensity (FLINT) readings, Ubiquitin-Rhodamine-110 substrate; format: biochemical; details: 0.25 nM His-His-USP7 (aa208-560), 60 minutes at 30° C. preincubation; Ki determined from IC50 according to Cer et al.
T1 construct: 0.25 nM His-His-USP7 (aa208-560, |C315A|) was incubated with compound; His-His (N)
T1 sequence (Q93009 208-560 C315A): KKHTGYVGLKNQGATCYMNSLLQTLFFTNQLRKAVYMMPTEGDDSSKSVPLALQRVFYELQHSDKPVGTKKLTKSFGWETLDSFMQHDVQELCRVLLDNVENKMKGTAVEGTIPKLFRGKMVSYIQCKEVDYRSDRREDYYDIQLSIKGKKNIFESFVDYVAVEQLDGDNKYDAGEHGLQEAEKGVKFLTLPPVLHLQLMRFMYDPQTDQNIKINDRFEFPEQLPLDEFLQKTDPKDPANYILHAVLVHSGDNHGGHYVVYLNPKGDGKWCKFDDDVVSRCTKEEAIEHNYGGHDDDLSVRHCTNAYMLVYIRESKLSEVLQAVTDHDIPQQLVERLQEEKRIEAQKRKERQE
Outline: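 His-tagged USP7 (aa208-560, C315A), 0.25 nM, preincubated with compound 60 min at 30 °C in 100 mM Bicine pH 8.0, 0.01% Triton X-100, 1 mM TCEP, 10% DMSO. Ubiquitin-Rhodamine-110 (50 nM or 4 μM) added; kinetic fluorescence (Ex 485/Em 535 nm) over 21 min; IC50 from 11-point curves, Ki derived from IC50.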

Compound	IC50 ([1]; Homo sapiens, Z-138)	Ki (USP7)	IC50 [1]
Cc1nccnc1CN1CC[C@@H](C(=O)N2CC[C@](O)(Cn3cnc(Oc4ccc(F)cc4)c(N)c3=O)C(F)(F)C2)[C@H](c2ccccc2)C1 [Example 211, 5-amino-3-[[(4S)-3,3-difluoro-4-hydroxy-1-[(3R,4R)-1-[(3-methylpyrazin-2-yl)methyl]-3-phenyl-piperidine-4-carbonyl]-4-piperidyl]methyl]-4(4-fluorophenoxy)pyrimidin-4-one]	24.9 nM	27.7 nM	–
Nc1c(Oc2ccc(F)cc2)ncn(CC2(O)CCN(C(=O)[C@@H]3CCN(Cc4cnccn4)C[C@H]3c3ccccc3)CC2)c1=O [Example 63]	16.3 nM	12.4 nM	–
Nc1c(Oc2ccc(F)cc2)ncn(CC2(O)CCN(C(=O)[C@@H]3CCN(C(=O)c4cc(F)cc(F)c4)C[C@H]3c3ccccc3)CC2)c1=O [Example 129, 5-amino-3-[[1-[(3R,4R)-1-(3,5-difluorobenzoyl)-3-phenyl-piperidine-4-carbonyl]-4-hydroxy-4-piperidyl]methyl]-6-(4-fluorophenoxy)pyrimidin-4-one]	5.2 nM	2.87 nM	–
Cc1nc(-c2ccc(F)cc2)sc1C(=O)N1CC[C@@H](C(=O)N2CCC(O)(Cn3cnc(Oc4ccc(F)cc4)c(N)c3=O)CC2)[C@H](c2ccccc2)C1 [Example 48, 5-amino-6-(4-fluorophenoxy)-3-[(1-((3R,4R)-1-[2-(4-fluorophenyl)-4-methyl-1,3-thiazole-5-carbonyl]-3-phenylpiperidine-4-carbonyl}-4-hydroxypiperidin-4-yl)methyl]pyrimidin-4(3H)-one]	3 nM	5.2 nM	–
5-amino-3-[[(3SR,4RS)-3-fluoro-4-hydroxy-1- (3R,4R)-1-[4-methyl-2-(6-methyl-3-pyridyl)thiazole-5-carbonyl]-3-phenyl-piperidine-4carbonyl]-4-piperidyl]methyl]-6-(4-fluorophenoxy)pyrimidin-4-one and 5-amino-3-[[(3RS,4SR)-3-fluoro-4-hydroxy-1-(3R,4R)-1-[4-methyl-2-(6-methyl-3-pyridyl)thiazole-5-carbonyl]-3-phenyl-piperidine-4-carbonyl]-4-piperidyl]methyl]-6-(4-fluorophenoxy)pyrimidin-4-one [Example 197]	–	14 nM	9.7 nM
Nc1c(Oc2ccc(F)cc2)ncn(CC2(O)CCN(C(=O)[C@@H]3CCN(C(=O)C4(c5ccccc5)CC4)C[C@H]3c3ccccc3)CC2)c1=O [Example 132]	47.8 nM	35.4 nM	–
COc1cc(Cl)cc(Oc2ncn(C[C@@]3(O)CCN(C(=O)[C@@H]4CCN(Cc5cnc(C)cn5)C[C@H]4c4ccccc4)CC3(F)F)c(=O)c2N)c1 [Example 178]	31.8 nM	70.1 nM	–
Nc1c(Oc2ccc(F)cc2)ncn(CC2(O)CCN(C(=O)[C@@H]3CCN(C4(c5ccccc5F)COC4)C[C@H]3c3ccccc3)CC2)c1=O [Example 109]	11 nM	65 nM	–
Cc1ccc(-c2nc(C)c(C(=O)N3CC[C@@H](C(=O)N4CC[C@](O)(Cn5cnc(Oc6ccc(F)cc6)c(N)c5=O)C(F)(F)C4)[C@H](c4ccccc4)C3)s2)cn1 [Example 45]	1.4 nM	3.6 nM	–
Cc1cc(Cl)cc(C(=O)N2CC[C@@H](C(=O)N3CCC(O)(Cn4cnc(Oc5ccc(F)cc5)c(N)c4=O)CC3)[C@H](c3ccccc3)C2)c1 [Example 162]	3.72 nM	12.7 nM	–
Cc1cncc(CN2CC[C@@H](C(=O)N3CC[C@](O)(Cn4cnc(Oc5ccc(F)cc5)c(N)c4=O)C(F)(F)C3)[C@H](c3ccccc3)C2)n1 [Example 207, 5-amino-3-[[(4S)-3,3-difluoro-4-hydroxy-1-[(3R,4R)-1-[(6-methylpyrazin-2-yl)methyl]-3-phenyl-piperidine-4-carbonyl]-4-piperidyl]methyl]-6-(4-fluorophenoxy)pyrimidin-4-one]	11.8 nM	27.4 nM	–
Nc1c(Oc2ccc(F)cc2)ncn(CC2(O)CCN(C(=O)[C@@H]3CCN(C(=O)C(F)(F)c4ccccc4)C[C@H]3c3ccccc3)CC2)c1=O [Example 75, 5-amino-3-[[1-[(3R,4R)-1-(2,2-difluoro-2-phenyl-acetyl)-3-phenyl-piperidine-4-carbonyl]-4-hydroxy-4-piperidyl]methyl]-6-(4-fluorophenoxy)pyrimidin-4-one]	43 nM	39 nM	–
COc1cc(Oc2ncn(C[C@@]3(O)CCN(C(=O)[C@@H]4CCN(C(=O)c5sc(-c6ccc(C)nc6)nc5C)C[C@H]4c4ccccc4)CC3(F)F)c(=O)c2N)ccc1Cl [Example 184, 5-amino-6-(4-chloro-3-methoxy-phenoxy)-3-[[(4S)-3,3-difluoro-4-hydroxy-1-[(3R,4R)-1-[4-methyl-2-(6-methyl-3-pyridyl)thiazole-5-carbonyl]-3-phenyl-piperidine-4-carbonyl]-4-piperidyl]methyl]pyrimidin-4-one]	3.96 nM	7.28 nM	–
Nc1c(Oc2ccc(F)cc2)ncn(CC2(O)CCN(C(=O)[C@@H]3CCN(C(=O)Nc4cccc(Br)c4)C[C@H]3c3ccccc3)CC2)c1=O [Example 83]	8.5 nM	42 nM	–
Cc1ncc(-c2nc(C)c(C(=O)N3CC[C@@H](C(=O)N4CC[C@](O)(Cn5cnc(Oc6ccc(F)cc6)c(N)c5=O)C(F)(F)C4)[C@H](c4ccccc4)C3)s2)cc1C(F)(F)F [Example 185, 5-amino-3-[[(4S)-3,3-difluoro-4-hydroxy-1-[(3R,4R)-1-[4-methyl-2-[6-methyl-5-(trifluoromethyl)-3-pyridyl]thiazole-5-carbonyl]-3-phenyl-piperidine-4-carbonyl]-4-piperidyl]methyl]-6-(4-fluorophenoxy)pyrimidin-4-one]	7.65 nM	13 nM	–
Nc1c(Oc2ccc(F)cc2)ncn(CC2(O)CCN(C(=O)[C@@H]3CCN(Cc4cccnc4)C[C@H]3c3ccccc3)CC2)c1=O [Example 62, 5-amino-6-(4-fluorophenoxy)-3-[(4-hydroxy-1-{(3R,4R)-3-phenyl-1-[(pyridin-3-yl)methyl]piperidine-4-carbonyl)piperidin-4-yl)methyl]pyrimidin-4(3H)-one]	14 nM	14 nM	–
Nc1c(Oc2ccc(F)cc2)ncn(CC2(O)CCN(C(=O)[C@@H]3CCN(S(=O)(=O)c4cccc(Br)c4)C[C@H]3c3ccccc3)CC2)c1=O [Example 69, 5-amino-3-[[1-[(3R,4R)-1-(3-bromophenyl)sulfonyl-3-phenyl-piperidine-4-carbonyl]-4-hydroxy-4-piperidyl]methyl]-6-(4-fluorophenoxy)pyrimidin-4-one]	21.7 nM	18.1 nM	–
Nc1c(Oc2ccc(F)cc2)ncn(CC2(O)CCN(C(=O)[C@@H]3CCN(Cc4ccccc4F)C[C@H]3c3ccccc3)CC2)c1=O [Example 52, 5-amino-6-(4-fluorophenoxy)-3-[(1-((3R,4R)-1-[(2-fluorophenyl)methyl]-3-phenylpiperidine-4-carbonyl}-4-hydroxypiperidin-4-yl)methyl]pyrimidin-4(3H)-one]	5.4 nM	13 nM	–
Nc1c(Oc2ccc(F)cc2)ncn(CC2(O)CCN(C(=O)[C@@H]3CCN(C(=O)c4cccc(Br)c4)C[C@H]3c3ccccc3)CC2)c1=O [Example 31, 5-amino-3-({1-((3R,4R)-1-(3-bromobenzoyl)-3-phenylpiperidine-4carbonyl]-4-hydroxypiperidin-4-yl)methyl)-6-(4-fluorophenoxy)pyrimidin-4(3H)-one]	5.45 nM	9.15 nM	–
Cn1c(C(=O)N2CC[C@@H](C(=O)N3CCC(O)(Cn4cnc(Oc5ccc(F)cc5)c(N)c4=O)CC3)[C@H](c3ccccc3)C2)c(Cl)c2ccccc21 [Example 127, 5-amino-3-[[1-[(3R,4R)-1-(3-chloro-1-methyl-indole-2-carbonyl)-3-phenyl-piperidine-4-carbonyl]-4-hydroxy-4-piperidyl]methyl]-6-(4-fluorophenoxy)pyrimidin-4-one]	20.4 nM	5.93 nM	–
Cc1nc(-c2ccc(C(F)(F)F)nc2)sc1C(=O)N1CC[C@@H](C(=O)N2CCC(O)(Cn3cnc(Oc4ccc(F)cc4)c(N)c3=O)CC2)[C@H](c2ccccc2)C1 [Example 42, 5-amino-6-(4-fluorophenoxy)-3-({4-hydroxy-1-{(3R,4R)-1-{4-methyl-2-[6-(trifluromethyl)pyridin-3-yl]-1,3-thiazole-5carbonyl)-3-phenylpiperidine-4-carbonyl]piperidin-4-yl}methyl)pyrimidin-4(3H)-one]	–	4.1 nM	3.66 nM
Nc1c(Oc2ccc(F)cc2)ncn(CC2(O)CCN(C(=O)[C@@H]3CCN(C(=O)c4cc(Cl)cc(Cl)c4)C[C@H]3c3ccccc3)CC2)c1=O [Example 130]	7.5 nM	1.83 nM	–
Nc1c(Oc2ccc(F)cc2)ncn(CC2(O)CCN(C(=O)[C@@H]3CCN(C(=O)Nc4ccccc4F)C[C@H]3c3ccccc3)CC2)c1=O [Example 89]	26 nM	20 nM	–
Cn1cnc2ccc(C(=O)N3CC[C@@H](C(=O)N4CCC(O)(Cn5cnc(Oc6ccc(F)cc6)c(N)c5=O)CC4)[C@H](c4ccccc4)C3)cc2c1=O [Example 123, 6-[(3R,4R)-4-(4-({5-amino-4-(4-fluorophenoxy)-6-oxopyrimidin-1(6H)-yl]methyl)-4-hydroxypiperidine-1-carbonyl)-3-phenylpiperidine-1-carbonyl]-3-methylquinazolin-4(3H)-one]	43.2 nM	6.92 nM	–
